In patent publication US11485740B2, “Inhibitors of TRPC6” (Boehringer Ingelheim International GmbH, priority 2018, dated 2022):
pIC50: −log10 of the molar value.

target: T1, human TRPC6 (Homo sapiens, UniProt Q9Y210); experiment: High throughput screening assay: Fluo4/AM calcium fluorescence in HEK293/TREx cells expressing human TRPC6, agonist GSK1702934A (single concentration 10 μM and IC50 curves); assay type: cell-based; conditions: antagonist effect against human TRPC6, 7 concentrations 20 μM to 0.027 μM, triplicate
T1 construct: expressed in transfected cells
T1 sequence (Q9Y210 1-931): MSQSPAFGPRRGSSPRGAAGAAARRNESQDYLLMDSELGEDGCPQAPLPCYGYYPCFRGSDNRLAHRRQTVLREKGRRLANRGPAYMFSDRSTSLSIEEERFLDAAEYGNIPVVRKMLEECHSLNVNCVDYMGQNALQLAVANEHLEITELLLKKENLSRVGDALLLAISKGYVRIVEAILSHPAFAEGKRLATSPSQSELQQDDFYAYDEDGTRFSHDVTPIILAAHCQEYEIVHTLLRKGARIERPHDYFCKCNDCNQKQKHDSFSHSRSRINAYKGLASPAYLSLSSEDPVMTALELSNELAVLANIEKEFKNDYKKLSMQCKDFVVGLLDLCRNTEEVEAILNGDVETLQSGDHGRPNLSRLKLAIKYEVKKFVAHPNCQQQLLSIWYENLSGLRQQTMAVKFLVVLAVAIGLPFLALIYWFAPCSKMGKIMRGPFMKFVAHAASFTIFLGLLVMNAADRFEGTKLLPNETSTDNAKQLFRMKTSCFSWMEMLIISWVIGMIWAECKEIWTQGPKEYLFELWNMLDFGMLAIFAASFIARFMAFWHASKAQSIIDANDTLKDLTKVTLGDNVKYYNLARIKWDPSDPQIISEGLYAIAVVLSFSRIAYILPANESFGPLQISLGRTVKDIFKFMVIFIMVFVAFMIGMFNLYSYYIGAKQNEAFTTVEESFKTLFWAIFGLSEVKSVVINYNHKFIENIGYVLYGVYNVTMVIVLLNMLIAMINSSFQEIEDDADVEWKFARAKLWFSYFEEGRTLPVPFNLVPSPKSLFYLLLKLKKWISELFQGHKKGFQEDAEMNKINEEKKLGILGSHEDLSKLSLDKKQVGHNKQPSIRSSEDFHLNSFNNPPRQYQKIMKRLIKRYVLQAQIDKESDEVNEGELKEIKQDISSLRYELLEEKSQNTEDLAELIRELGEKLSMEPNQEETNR
Source text: High Throughput Screening Assay
This screening assay measures human TRPC6 (transient receptor potential cation channel, subfamily C, member 6) ion channel activation via addition either of the commercially available DAG ligand analogue OAG (1-oleoyl-2-acetyl-sn-glycerol) or of the TRPC6 agonist 1-[1-(4,5,6,7,8-pentahydrocyclohepta[2,1-d]thiophen-2-ylcarbonyl)-4-piperidyl]-3-hydrobenzimidazol-2-one (GSK1702934A). The assay utilizes a fluorescent calcium sensor 4-(6-Acetoxymethoxy-2,7-difluoro-3-oxo-9-xanthenyl)-4′-methyl-2,2′-(ethylenedioxy)dianiline-N,N,N′,N′-tetraacetic acid tetrakis(acetoxymethyl) ester (Fluo4/AM) dye from Molecular Devices. Changes (increases) in intracellular calcium concentration as measured by the fluorescent signal increase provide a measurement of channel activity.
The commercially available HEK293/TREx line (Invitrogen) was stably transfected with a human TRPC6 construct and screened by conventional calcium imaging to find clones with human TRPC6 expression following stimulation with 1 μg/ml tetracycline. These cells were maintained in the growth medium recommended by the manufacturer supplemented with 100 μg/ml hygromycin to promote retention of the human TRPC6 construct. After growing to near confluency, cells were plated at a density of ^˜35,000 cells/well in 384 well CellBind plates (Corning) in the presence of 1 μg/ml tetracycline, and allowed to grow for 20-30 hrs. A nearly confluent monolayer resulted. Growth media was removed from the wells and cells were then loaded with […] Fluo4/AM diluted in Ringer's Solution (6.5 g NaCl, 0.42 g KCl, 0.25 g CaCl2) and 0.2 g of sodium bicarbonate; pH 7.4) supplemented with 1% Pluronic F-127 to a final concentration of 0.5 μM and incubated for 60 min, at room temperature. Dye solution was then removed from the cells by inverting plates with a sharp flick, and replaced with 25 μl Ringer's. Following ^˜0.5 hour for recovery from loading, cells were assayed using the Hamamatsu FDSS 6000 system, which permitted illumination at 485 nm. Frames were acquired at a rate of 0.2 Hz. During the assay, the plates were continuously vortexed, with pipette mixing of wells following addition of each reagent. For the screening assay, 26 μl of a diluted compound stock (at 50 μM) was added to each well for 2 minutes following the collection of a short (4 frame) baseline. 13 μl of agonist solution consisting of 125 nM GSK1702934A diluted in high-Ca2+Ringer solution (containing 90 mM Ca2+) was then added to each well, achieving a final concentration of 20 mM Ca2+ and 10 μM test compound. Data was collected for ^˜3 minutes following addition of high Ca2+Ringer. The fluorescent intensity observed at a particular timepoint for each well was divided by the initial fluorescent intensity for that well and the overall response was determined by averaging the resulting fluorescent ratio of the last 4 frames acquired during the experiment excepting the final frame. Negative and Positive controls were included on each plate. Negative controls wells consisted of HEK293/TREx TRPC6 cells exposed to assay buffer and agonist solution, but no test compound. Positive control consisted of wells consisted of HEK293/TREx TRPC6 cells exposed to 25 μM 3-[(2-chlorophenoxy)methyl]phenyl piperidyl ketone (Chembridge) diluted in Ringer's solution and agonist solution. These controls defined zero percent and 100 percent block respectively, and intensity of each well was normalized to these values.
Compounds were tested in triplicate at all concentrations. Standard software was used to fit IC50 curves.

**Q.** With Nc1ccc(C2CCN(C(=O)c3ccc(-c4cccc(Cl)c4)cc3)CC2)nn1 [Compound 6, [4-(6-Amino-pyridazin-3-yl)-piperidin-1-yl]-(3′-chloro-biphenyl-4-yl)-methanone] as the compound, how does the pIC50 read?
**A.** 5.36

**Q.** How did the pIC50 turn out when COc1cc(C(=O)N2CCC(c3ccc(N)nn3)CC2)ncc1-c1ccc(C(F)(F)F)c(F)c1 [Compound 26, [4-(6-Amino-pyridazin-3-yl)-piperidin-1-yl]-[5-(3-fluoro-4-trifluoromethyl-phenyl)-4-methoxy-pyridin-2-yl]-methanone] was run?
**A.** 7.24

**Q.** COc1cc(C(=O)N2CCN(c3cnc(N)cc3C)C[C@@H]2CO)ncc1-c1ccc(C(F)(F)F)cc1 [Compound 92, [(R)-4-(6-Amino-4-methyl-pyridin-3-yl)-2-hydroxymethyl-piperazin-1-yl]-[4-methoxy-5-(4-trifluoromethyl-phenyl)-pyridin-2-yl]-methanone] was tested. Which pIC50 did it give?
**A.** 7.25

**Q.** COc1cc(C(=O)N2CCC(c3ccc(N)nn3)CC2)ncc1-c1ccc2c(c1)OCC2 [Compound 16, [4-(6-Amino-pyridazin-3-yl)-piperidin-1-yl]-[5-(2,3-dihydro-benzofuran-6-yl)-4-methoxy-pyridin-2-yl]-methanone] was tested. Which pIC50 did it give?
**A.** 6.41

**Q.** How did the pIC50 turn out when COc1cc(C(=O)N2CCN(c3ccc(N)nc3)C[C@@H]2CO)ncc1-c1ccccc1 [Compound 91, [(R)-4-(6-Amino-pyridin-3-yl)-2-hydroxymethyl-piperazin-1-yl]-(4-methoxy-5-phenyl-pyridin-2-yl)-methanone] was run?
**A.** 6.52

**Q.** With COc1cc(C(=O)N2CCC(c3ccc(N)nn3)CC2)ncc1-c1ccc(C(F)(F)F)cc1 [Compound 27, 6-(1-{4-Methoxy-5-[4-(trifluoromethyl)phenyl]pyridine-2-carbonyl}piperidin-4-yl)pyridazin-3-amine] as the compound, how does the pIC50 read?
**A.** 7.44

**Q.** How did the pIC50 turn out when COc1cc(C(=O)N2CCC(c3ccc(N)nn3)CC2)ncc1-c1ccc(C)c(C#N)c1 [Compound 51, 5-{6-[4-(6-Amino-pyridazin-3-yl)-piperidine-1-carbonyl]-4-methoxy-pyridin-3-yl}-2-methyl-benzonitrile] was run?
**A.** 6.05

**Q.** COc1cc(C(=O)N2CCC(c3ccc(N)nn3)CC2)ncc1-c1ccc(C(F)F)cc1 [Compound 38, [4-(6-Amino-pyridazin-3-yl)-piperidin-1-yl]-[5-(4-difluoromethyl-phenyl)-4-methoxy-pyridin-2-yl]-methanone] was tested. Which pIC50 did it give?
**A.** 6.74

**Q.** COc1cc(C(=O)N2CCN(c3cnc(N)cc3OC)C[C@H]2CC(F)F)ncc1-c1ccc(C(F)(F)F)cc1 (single isomer, unassigned) [Compound 110] was tested. Which pIC50 did it give?
**A.** 6.40

**Q.** With COc1nc(C(=O)N2CCC(c3ccc(N)nn3)CC2)ccc1-c1ccc(C(F)(F)F)cc1 [Compound 64, [4-(6-Amino-pyridazin-3-yl)-piperidin-1-yl]-[6-methoxy-5-(4-trifluoromethyl-phenyl)-pyridin-2-yl]-methanone] as the compound, how does the pIC50 read?
**A.** 5.89

**Q.** How did the pIC50 turn out when COc1cc(C(=O)N2CCC(c3ccc(N)nn3)CC2)ncc1-c1ccc2c(c1)OCCO2 [Compound 22, [4-(6-Amino-pyridazin-3-yl)-piperidin-1-yl]-[5-(2,3-dihydro-benzo[l ,4]dioxin-6-yl)-4-methoxy-pyridin-2-yl]-methanone] was run?
**A.** 6.37

**Q.** COc1cc(C(=O)N2CCC(c3ccc(N)nn3)CC2)ccc1-c1ccc(O[C@@H](C)C2CC2)nc1 [Compound 78, [4-(6-Amino-pyridazin-3-yl)-piperidin-1-yl]-{4-[6-((S)-1-cyclopropyl-ethoxy)-pyridin-3-yl]-3-methoxy-phenyl}-methanone] was tested. Which pIC50 did it give?
**A.** 6.34

**Q.** How did the pIC50 turn out when COc1cc(C(=O)N2CCC(c3ccc(N)nn3)CC2)ncc1-c1cccc(OCC2CC2)c1 [Compound 21, [4-(6-Amino-pyridazin-3-yl)-piperidin-1-yl]-[5-(3-cyclopropylmethoxy-phenyl)-4-methoxy-pyridin-2-yl]-methanone] was run?
**A.** 6.80

**Q.** Cc1cc(C(=O)N2CCC(c3ccc(N)nn3)CC2)ccc1-c1ccc(C(F)(F)F)cc1 [Compound 63, [4-(6-Amino-pyridazin-3-yl)-piperidin-1-yl]-(2-methyl-4′-trifluoromethyl-biphenyl-4-yl)-methanone] was tested. Which pIC50 did it give?
**A.** 5.33

**Q.** COc1cc(C(=O)N2CCC(c3ccc(N)nn3)CC2)ccc1-c1ccc(OCC2CC2(F)F)nc1 (stereo not shown) [Compound 76, [4-(6-Amino-pyridazin-3-yl)-piperidin-1-yl]{4-[6-(2,2-difluoro-cyclopropylmethoxy)-pyridin-3-yl]-3-methoxy-phenyl}-methanone] was tested. Which pIC50 did it give?
**A.** 6.42

**Q.** How did the pIC50 turn out when COc1cc(C(=O)N2CCC(c3ccc(N)nc3)CC2)ncc1-c1ccc(F)cc1 [Compound 72, (6-Amino-3′,4′,5′,6′-tetrahydro-2′H-[3,4′]bipyridinyl-1′-yl)-[5-(4-fluoro-phenyl)-4-methoxy-pyridin-2-yl]methanone] was run?
**A.** 7.57

**Q.** With COc1cc(C(=O)N2CCC(c3ccc(N)nn3)CC2)ncc1-c1ccc(OC(C)C)c(F)c1 [Compound 20, [4-(6-Amino-pyridazin-3-yl)-piperidin-1-yl]-[5-(3-fluoro-4-isopropoxy-phenyl)-4-methoxy-pyridin-2-yl]-methanone] as the compound, how does the pIC50 read?
**A.** 6.35

**Q.** With COc1cc(C(=O)N2CCN(c3cnc(N)cc3OC)CC2)ncc1-c1ccccc1 [Compound 105, 4-Methoxy-5-[4-(4-methoxy-5-phenylpyridine-2-carbonyl)piperazin-1-yl]pyridin-2-amine] as the compound, how does the pIC50 read?
**A.** 7.49

**Q.** How did the pIC50 turn out when COc1cc(C(=O)N2CCN(c3cnc(N)cc3OC)C[C@H]2CO)ncc1-c1ccc(C(F)(F)F)cc1 [Compound 101, [(S)-4-(6-Amino-4-methoxy-pyridin-3-yl)-2-hydroxymethyl-piperazin-1-yl]-[4-methoxy-5-(4-trifluoromethyl-phenyl)-pyridin-2-yl]-methanone] was run?
**A.** 6.41

**Q.** With COc1cc(C(=O)N2CCN(c3cnc(N)cc3C)C[C@@H]2CO)ncc1-c1ccccc1 [Compound 94, [(R)-4-(6-Amino-4-methyl-pyridin-3-yl)-2-hydroxymethyl-piperazin-1-yl]-(4-methoxy-5-phenyl-pyridin-2-yl)-methanone] as the compound, how does the pIC50 read?
**A.** 7.57

**Q.** COc1cc(C(=O)N2CCC(c3ccc(N)nn3)CC2)ncc1-c1ccc(F)c(OCC(F)(F)F)c1 [Compound 15, [4-(6-Amino-pyridazin-3-yl)-piperidin-1-yl]-{5-(4-fluoro-3-(2,2,2-trifluoro-ethoxy)-phenyl]-4-methoxy-pyridin-2-yl}-methanone] was tested. Which pIC50 did it give?
**A.** 5.77

**Q.** With Cc1ccc(-c2ccc(C(=O)N3CCC(c4ccc(N)nn4)CC3)cc2)cc1 [Compound 3, [4-(6-Amino-pyridazin-3-yl)-piperidin-1-yl]-(4′-methyl-biphenyl-4-yl)-methanone] as the compound, how does the pIC50 read?
**A.** 5.77
